# From paper PMC11033320, “Activation of p53 signaling and regression of breast and prostate carcinoma cells by spirooxindole-benzimidazole small molecules” (Frontiers in Pharmacology, 2024)
# Key:
# [1] = tested on: SF-295; experiment: NCI anticancer screening, CNS Cancer SF-295; assay type: cell-based; conditions: Homo sapiens; SF-295, 10 μM; read-out: % Growth Inhibition (GI %)
# Source text: (§1) The compound has been processed according to standard method NCI-60 Human Tumor Cell Lines Screen for organic compound at development therapeutic program (DTP). Requests for access to this national resource can be submitted online at: […]
# [2] = tested on: NCI/ADR-RES; experiment: NCI anticancer screening, Ovarian Cancer NCI/ADR-RES; assay type: cell-based; conditions: Homo sapiens, read-out: % Growth Inhibition (GI %)
# Source text: as §1
# [3] = tested on: HCT-116; experiment: NCI anticancer screening, Colon Cancer HCT-116; assay type: cell-based; conditions: Homo sapiens; HCT-116, 10 μM; read-out: % Growth Inhibition (GI %)
# Source text: as §1
# [4] = tested on: SF-539; experiment: NCI anticancer screening, CNS Cancer SF-539; assay type: cell-based; conditions: Homo sapiens; SF-539, 10 μM; read-out: % Growth Inhibition (GI %)
# Source text: as §1
# [5] = tested on: HCT-15; experiment: NCI anticancer screening, Colon Cancer HCT-15; assay type: cell-based; conditions: Homo sapiens; HCT-15, 10 μM; read-out: % Growth Inhibition (GI %)
# Source text: as §1
# [6] = tested on: OVCAR-4; experiment: NCI anticancer screening, Ovarian Cancer OVCAR-4; assay type: cell-based; conditions: Homo sapiens; OVCAR-4, 10 μM; read-out: % Growth Inhibition (GI %)
# Source text: as §1
# [7] = tested on: NCI-H460; experiment: NCI anticancer screening, Non-Small Cell Lung Cancer NCI-H460; assay type: cell-based; conditions: Homo sapiens; NCI-H460, 10 μM; read-out: % Growth Inhibition (GI %)
# Source text: as §1
# [8] = tested on: HOP-92; experiment: NCI anticancer screening, Non-Small Cell Lung Cancer HOP-92; assay type: cell-based; conditions: Homo sapiens; HOP-92, 10 μM; read-out: % Growth Inhibition (GI %)
# Source text: as §1
# [9] = tested on: SK-MEL-2; experiment: NCI anticancer screening, Melanoma SK-MEL-2; assay type: cell-based; conditions: Homo sapiens; SK-MEL-2, 10 μM; read-out: % Growth Inhibition (GI %)
# Source text: as §1
# [10] = tested on: NCI-H322M; experiment: NCI anticancer screening, Non-Small Cell Lung Cancer NCI-H322M; assay type: cell-based; conditions: Homo sapiens, read-out: % Growth Inhibition (GI %)
# Source text: as §1
# [11] = tested on: BT-549; experiment: NCI anticancer screening, Breast Cancer BT-549; assay type: cell-based; conditions: Homo sapiens; BT-549, 10 μM; read-out: % Growth Inhibition (GI %)
# Source text: as §1
# [12] = tested on: SK-MEL-5; experiment: NCI anticancer screening, Melanoma SK-MEL-5; assay type: cell-based; conditions: Homo sapiens; SK-MEL-5, 10 μM; read-out: % Growth Inhibition (GI %)
# Source text: as §1
# [13] = tested on: NCI-H23; experiment: NCI anticancer screening, Non-Small Cell Lung Cancer NCI-H23; assay type: cell-based; conditions: Homo sapiens; NCI-H23, 10 μM; read-out: % Growth Inhibition (GI %)
# Source text: as §1
# [14] = tested on: M14; experiment: NCI anticancer screening, Melanoma M14; assay type: cell-based; conditions: Homo sapiens; M14, 10 μM; read-out: % Growth Inhibition (GI %)
# Source text: as §1
# [15] = tested on: T-47D; experiment: NCI anticancer screening, Breast Cancer T-47D; assay type: cell-based; conditions: Homo sapiens, T47D, read-out: % Growth Inhibition (GI %)
# Source text: as §1
# [16] = tested on: EKVX; experiment: NCI anticancer screening, Non-Small Cell Lung Cancer EKVX; assay type: cell-based; conditions: Homo sapiens, read-out: % Growth Inhibition (GI %)
# Source text: as §1
# [17] = tested on: SNB-19; experiment: NCI anticancer screening, CNS Cancer SNB-19; assay type: cell-based; conditions: Homo sapiens; SNB-19, 10 μM; read-out: % Growth Inhibition (GI %)
# Source text: as §1
# [18] = tested on: CCRF-CEM; experiment: NCI anticancer screening, Leukemia CCRF-CEM; assay type: cell-based; conditions: Homo sapiens, read-out: % Growth Inhibition (GI %)
# Source text: as §1
# [19] = tested on: K-562; experiment: NCI anticancer screening, Leukemia K-562; assay type: cell-based; conditions: Homo sapiens, K562; K-562, 10 μM; read-out: % Growth Inhibition (GI %)
# Source text: as §1
# [20] = tested on: SN12C; experiment: NCI anticancer screening, Renal Cancer SN12C; assay type: cell-based; conditions: Homo sapiens, read-out: % Growth Inhibition (GI %)
# Source text: as §1
# [21] = tested on: HS 578T; experiment: NCI anticancer screening, Breast Cancer HS 578T; assay type: cell-based; conditions: Homo sapiens, read-out: % Growth Inhibition (GI %)
# Source text: as §1
# [22] = tested on: OVCAR-5; experiment: NCI anticancer screening, Ovarian Cancer OVCAR-5; assay type: cell-based; conditions: Homo sapiens; OVCAR-5, 10 μM; read-out: % Growth Inhibition (GI %)
# Source text: as §1
# [23] = tested on: U251; experiment: NCI anticancer screening, CNS Cancer U251; assay type: cell-based; conditions: Homo sapiens, U-251; U251, 10 μM; read-out: % Growth Inhibition (GI %)
# Source text: as §1
# [24] = tested on: MDA-MB 231 cells; conditions: for inhibition: 5 µM
# Procedure: Anticancer effect of the above-mentioned compounds was assayed using three human cancer cell lines. Triple negative breast cancer cell line (MDA-MB 231) and prostate cancer cell line (PC3) were cultured in DMEM (Lonza, USA) supplemented with 10% FBS. All cancer cells (4x10^3 cells/well) were seeded in sterile 96-well plates. After 24h, serial concentrations of the tested compounds were incubated with three cancer cell lines for 72 h at 37 °C in 5% CO2 incubator. […] The half maximal inhibitory concentration (IC50) values were calculated using the Graphpad Instat software.
# [25] = tested on: SF-268; experiment: NCI anticancer screening, CNS Cancer SF-268; assay type: cell-based; conditions: Homo sapiens; SF-268, 10 μM; read-out: % Growth Inhibition (GI %)
# Source text: as §1
# [26] = tested on: LOX IMVI; experiment: NCI anticancer screening, Melanoma LOX IMVI; assay type: cell-based; conditions: Homo sapiens, read-out: % Growth Inhibition (GI %)
# Source text: as §1
# [27] = tested on: MCF7; experiment: NCI anticancer screening, Breast Cancer MCF7; assay type: cell-based; conditions: Homo sapiens; MCF7, 10 μM; read-out: % Growth Inhibition (GI %)
# Source text: as §1
# [28] = tested on: MDA-MB-468; experiment: NCI anticancer screening, Breast Cancer MDA-MB-468; assay type: cell-based; conditions: Homo sapiens, read-out: % Growth Inhibition (GI %)
# Source text: as §1
# [29] = tested on: SR; experiment: NCI anticancer screening, Leukemia SR; assay type: cell-based; conditions: Homo sapiens, read-out: % Growth Inhibition (GI %)
# Source text: as §1
# [30] = tested on: UO-31; experiment: NCI anticancer screening, Renal Cancer UO-31; assay type: cell-based; conditions: Homo sapiens; UO-31, 10 μM; read-out: % Growth Inhibition (GI %)
# Source text: as §1
# [31] = tested on: OVCAR-8; experiment: NCI anticancer screening, Ovarian Cancer OVCAR-8; assay type: cell-based; conditions: Homo sapiens; OVCAR-8, 10 μM; read-out: % Growth Inhibition (GI %)
# Source text: as §1
# [32] = tested on: KM12; experiment: NCI anticancer screening, Colon Cancer KM12; assay type: cell-based; conditions: Homo sapiens; KM12, 10 μM; read-out: % Growth Inhibition (GI %)
# Source text: as §1
# [33] = tested on: SW-620; experiment: NCI anticancer screening, Colon Cancer SW-620; assay type: cell-based; conditions: Homo sapiens; SW-620, 10 μM; read-out: % Growth Inhibition (GI %)
# Source text: as §1
# [34] = tested on: TK-10; experiment: NCI anticancer screening, Renal Cancer TK-10; assay type: cell-based; conditions: Homo sapiens; TK-10, 10 μM; read-out: % Growth Inhibition (GI %)
# Source text: as §1
# [35] = tested on: MDA-MB-435; experiment: NCI anticancer screening, Melanoma MDA-MB-435; assay type: cell-based; conditions: Homo sapiens; MDA-MB-435, 10 μM; read-out: % Growth Inhibition (GI %)
# Source text: as §1
# [36] = tested on: SNB-75; experiment: NCI anticancer screening, CNS Cancer SNB-75; assay type: cell-based; conditions: Homo sapiens; SNB-75, 10 μM; read-out: % Growth Inhibition (GI %)
# Source text: as §1
Structure (SMILES),inhibition at 10 µM [1] [%],inhibition at 10 µM [2] [%],inhibition at 10 µM [3] [%],inhibition at 10 µM [4] [%],inhibition at 10 µM [5] [%],inhibition at 10 µM [6] [%],inhibition at 10 µM [7] [%],inhibition at 10 µM [8] [%],inhibition at 10 µM [9] [%],inhibition at 10 µM [10] [%],inhibition at 10 µM [11] [%],inhibition at 10 µM [12] [%],inhibition at 10 µM [13] [%],inhibition at 10 µM [14] [%],inhibition at 10 µM [15] [%],inhibition at 10 µM [16] [%],melting point [°C],inhibition at 10 µM [17] [%],inhibition at 10 µM [18] [%],inhibition at 10 µM [19] [%],also measured
"O=C(c1nc2ccccc2[nH]1)[C@H]1[C@H](c2ccc(Cl)cc2)C2CSCN2[C@]12C(=O)Nc1ccccc12 (stereo partly drawn) [Compound 6b, (3S,6′R)-6'-(1H-Benzo [d]imidazole-2-carbonyl)-7'-(4-chlorophenyl)-3′,6′,7′,7a′-tetrahydro-1′H-spiro [indoline-3.5′-pyrrolo [1,2-c]thiazol]-2-one]",77.5,84.7,60.5,84.1,76.6,69.5,74.3,100,110,93.5,97,91.6,81.4,79.4,59.9,80.7,210 to 212,77.7,86.3,82.3,inhibition at 10 µM [20]: 80.7%; inhibition at 10 µM [21]: 72.1%; inhibition at 10 µM [22]: 92.5%; inhibition at 10 µM [23]: 81.2%; IC50 [24]: 4.76 ± 0.265 µM; inhibition [24]: 52.7 ± 2.94%; inhibition at 10 µM [25]: 77.5%; inhibition at 10 µM [26]: 76.6%; inhibition at 10 µM [27]: 74.7%; inhibition at 10 µM [28]: 89.4%; inhibition at 10 µM [29]: 65.9%; inhibition at 10 µM [30]: 49%; inhibition at 10 µM [31]: 89.5%; inhibition at 10 µM [32]: 66.5%; inhibition at 10 µM [33]: 77%; inhibition at 10 µM [34]: 121%; inhibition at 10 µM [35]: 79.9%; inhibition at 10 µM [36]: 69.1%
"O=C(c1nc2ccccc2[nH]1)[C@H]1[C@H](c2ccc(Cl)cc2Cl)C2CSCN2[C@]12C(=O)Nc1ccccc12 (stereo partly drawn) [Compound 6g, (3S,6′R)-6'-(1H-Benzo [d]imidazole-2-carbonyl)-7'-(2,4-dichlorophenyl)-3′,6′,7′,7a′-tetrahydro-1′H-spiro [indoline-3.5′-pyrrolo [1,2-c]thiazol]-2-one]",63.7,68.4,56.4,76.4,56,57.6,55.5,77.6,84.4,79.5,92.3,81.9,85.4,66.8,54.4,63.5,235 to 237,70.1,60.1,65.6,inhibition at 10 µM [20]: 63%; inhibition at 10 µM [21]: 65.1%; inhibition at 10 µM [22]: 86.1%; inhibition at 10 µM [23]: 79%; IC50 [24]: 6.22 µM; inhibition [24]: 56.7 ± 0.87%; inhibition at 10 µM [25]: 47%; inhibition at 10 µM [26]: 67.2%; inhibition at 10 µM [27]: 51%; inhibition at 10 µM [28]: 69.2%; inhibition at 10 µM [29]: 45.8%; inhibition at 10 µM [30]: 39.7%; inhibition at 10 µM [31]: 77%; inhibition at 10 µM [32]: 52.3%; inhibition at 10 µM [33]: 72.9%; inhibition at 10 µM [34]: 107%; inhibition at 10 µM [35]: 56%; inhibition at 10 µM [36]: 59.7%
